Key:
Assay type in all cases: cell-based
Details in all cases: isolated compound
H460 cells = assay: MTT survival assay, human lung cancer cell line H460
Description: (§1) The Anctin K(AnK) and dehydroeburicoic acid (DeHBA) separately isolated from the Extraction A of Example 1 were added into the culture media of human lung-cancer cells, A549, CH27 or H460, to test for tumor cell survival by using anti-cancer drug screen model. This survival assay was carried out with the widely known MTT (3-[4,5-dimethylthiazol-2-yl]2,5-diphenyltetrazolium bromide) assay.
(§2) Lung cancer cell lines, A549 cells are adenocarcinomic human alveolar basal epithelial cells. A549 cell line are widely used as an in vitro model for a type II pulmonary epithelial cell model for drug metabolism and as a transfection host, while CH27 is human lung squamous carcinoma cell and H460 is human lung non-small cell carcinoma cell. The human lung-cancer cells, A549, CH27 and H460 were cultivated in media containing fetal calf serum for 10 hours. The proliferated cells were washed once with PBS, then treated with 1× trypsin-EDTA and centrifuged at 2000 rpm for 10 minutes. The supernatant was discarded and the cell pellet was re-suspended in […] of fresh culture medium by gently shaking. The cells were placed in a 96-well plate.
(§3) Subsequently, the plates were read on an ELISA reader to determine the survival rates. The half maximal inhibitory concentration (IC50) values were calculated and results of ex vivo survival assay were thus obtained.
(§4) By using the same manner as the method described above, respectively human lung cancer cell line A549, CH27 and H460 was cultured. After then, the pharmaceutical compositions A-F of the present invention was applied separately, and then MTT assay for each sample was measured to assess the inhibition effectiveness of various cancer cell activity while using pharmaceutical compositions A-F of the present invention.

CH27 cells = assay: MTT survival assay, human lung cancer cell line CH27
Description: as §1, §2, §3, §4

A549 cells = assay: MTT survival assay, human lung cancer cell line A549
Description: as §1, §2, §3, §4

| Structure (SMILES) | half-maximal inhibitory concentration (IC50) (H460 cells) | survival rate of lung cancer cell (H460 cells) | half-maximal inhibitory concentration (IC50) (CH27 cells) | survival rate of lung cancer cell (CH27 cells) | half-maximal inhibitory concentration (IC50) (A549 cells) | survival rate of lung cancer cell (A549 cells) |
| --- | --- | --- | --- | --- | --- | --- |
| C=C(CC[C@@H](C)[C@H]1CC[C@H]2C3=C(C(=O)C[C@]12C)[C@@]1(C)CC[C@@H](O)[C@](C)(O)C1C[C@@H]3O)C(C)C(=O)O (stereo partly drawn) [Anctin K] | relatively low | decreasing the survival rate | relatively low | decreasing the survival rate | relatively low | decreasing the survival rate |
| C=C(CC[C@@H](C(=O)O)[C@H]1CC[C@@]2(C)C3=CC[C@H]4C(C)(C)[C@@H](O)CC[C@]4(C)C3=CC[C@]12C)C(C)C [dehydroeburicoic acid] | relatively low | decreasing the survival rate | relatively low | decreasing the survival rate | relatively low | decreasing the survival rate |

From patent US20170189418A1, “PHARMACEUTICAL COMPOSITION FOR TREATING LUNG CANCER” (MA SHEN KAI RUEI CO., LTD., priority 2015, published 2017)
